Data published in US20150216189A1, “NATAMYCIN-CYCLODEXTRIN COMPLEXES FOR USE IN FOODSTUFF, PROCESS FOR THEIR MANUFACTURE AND USE THEREOF” (priority 2011, published 2015).

How the values were obtained:
[1] = Text: Natamycin is sensitive to both high and low pH values and is degraded under such conditions. Despite this fact, the present invention utilizes such pH ranges. […] Typically the pH value is in the range of 10 to 12. In another embodiment the pH value of the aqueous solution in the complexation step is in the range of 6 or lower, preferably 1 to 4. Typically the pH value is lower than 4, such as in the range of 3 to 4. […] The tests in FIG. 1 and FIG. 2 were made through mixing natamycin (1%) and cyclodextrin (1%) with water (98%)
[2] = cited from earlier work
yeasts and moulds = conditions: cited from earlier work
[3] = Antifungal activity on baked goods
Text: Studies were done wherein aqueous solutions of natamycin-cyclodextrin complexes have been applied onto shredded cheese or used in pharmaceutical preparations.

mould = test: Tortilla spray application shelf life study (mould growth); conditions: 21.7° C., no natamycin (variables 2, 3)
Protocol: A gamma-cyclodextrin-natamycin solution was produced employing a high pH system and the obtained solution was spray dried. Tortillas were treated with a standard natamycin (Natamax® SF) treatment, the spray-dried gamma-cyclodextrin-natamycin product, and traditional chemical preservatives to assess relative antifungal efficacy in baked goods.
Sample Variables in the Tortilla Treatments: • 1. Control—Deionized Water • 2. Control—Gamma-cyclodextrin (0.5% solution) • 3. Traditional Chemical Preservatives (fumarate, sorbate, propionate) • 4. Natamax® SF (target of ˜12 ppm natamycin on finished product) • 5. Gamma-cyclodextrin-natamycin powder (target of ˜12 ppm natamycin on finished product) • 6. Gamma-cyclodextrin-natamycin powder (target of ˜6 ppm natamycin on finished product)
For the spray application, each of the solutions were sprayed on 36 tortillas (about seven inches in diameter) using roughly the same spray volume. The tortillas were held on standard storage racks at 21.7° C. and monitored 0 to 30 days for mould growth.

C[C@@H]1C/C=C/C=C/C=C/C=C/[C@H](O[C@@H]2O[C@H](C)[C@@H](O)[C@H](N)[C@@H]2O)C[C@@H]2O[C@](O)(C[C@@H](O)C[C@H]3O[C@@H]3/C=C/C(=O)O1)C[C@H](O)[C@H]2C(=O)O [Natamycin]
percentage of solubilized natamycin [1]: lower than 4%
maximum water solubility [2]: around 40 ppm
concentrations inhibiting most strains (yeasts and moulds): 1-40 ppm

OC[C@H]1O[C@@H]2O[C@H]3[C@H](O)[C@@H](O)[C@@H](O[C@H]4[C@H](O)[C@@H](O)[C@@H](O[C@H]5[C@H](O)[C@@H](O)[C@@H](O[C@H]6[C@H](O)[C@@H](O)[C@@H](O[C@H]7[C@H](O)[C@@H](O)[C@@H](O[C@H]8[C@H](O)[C@@H](O)[C@@H](O[C@H]9[C@H](O)[C@@H](O)[C@@H](O[C@H]1[C@H](O)[C@H]2O)O[C@@H]9CO)O[C@@H]8CO)O[C@@H]7CO)O[C@@H]6CO)O[C@@H]5CO)O[C@@H]4CO)O[C@@H]3CO [Variable 2, Gamma-cyclodextrin]
antifungal activity when applied on baked goods [3]: no antifungal activity
Number of moulded tortillas (mould; Day 0): 0
Number of moulded tortillas (mould; Day 5): 20
Number of moulded tortillas (mould; Day 6): 25
Number of moulded tortillas (mould; Day 7): 26
Number of moulded tortillas (mould; Day 8): 28
Number of moulded tortillas (mould; Day 9): 28
Number of moulded tortillas (mould; Day 12): 30
Number of moulded tortillas (mould; Day 13): 30
Number of moulded tortillas (mould; Day 14): 30
Number of moulded tortillas (mould; Day 15): 30
Number of moulded tortillas (mould; Day 16): 30
Number of moulded tortillas (mould; Day 19): 30
Number of moulded tortillas (mould; Day 20): 30
Number of moulded tortillas (mould; Day 21): 30
Number of moulded tortillas (mould; Day 26): 30
Number of moulded tortillas (mould; Day 27): 30
Number of moulded tortillas (mould; Day 28): 30
Number of moulded tortillas (mould; Day 29): 30
Number of moulded tortillas (mould; Day 30): 30
